Laboratory results from patent US20060223837A1 (priority 2005, published 2006).
Each block holds one compound with its values, some of them ahead of it.

Assays:
human VR1 [1] = biological target: T1, human VR1 (Homo sapiens, UniProt Q8NER1); assay: Human VR1 [3H]RTX binding assay; conditions: for h Binding % I (1 μM) / inhibition at 1 µM: inhibition of [3H]RTX binding at 1 μM; for inhibition at 1 µM: read-out: h Binding % I (1 μM); for Ki: [3H]RTX binding, HEK293 membranes
T1 construct: expressed in transfected cells; host or cells: HEK293
T1 sequence (Q8NER1 whole entry): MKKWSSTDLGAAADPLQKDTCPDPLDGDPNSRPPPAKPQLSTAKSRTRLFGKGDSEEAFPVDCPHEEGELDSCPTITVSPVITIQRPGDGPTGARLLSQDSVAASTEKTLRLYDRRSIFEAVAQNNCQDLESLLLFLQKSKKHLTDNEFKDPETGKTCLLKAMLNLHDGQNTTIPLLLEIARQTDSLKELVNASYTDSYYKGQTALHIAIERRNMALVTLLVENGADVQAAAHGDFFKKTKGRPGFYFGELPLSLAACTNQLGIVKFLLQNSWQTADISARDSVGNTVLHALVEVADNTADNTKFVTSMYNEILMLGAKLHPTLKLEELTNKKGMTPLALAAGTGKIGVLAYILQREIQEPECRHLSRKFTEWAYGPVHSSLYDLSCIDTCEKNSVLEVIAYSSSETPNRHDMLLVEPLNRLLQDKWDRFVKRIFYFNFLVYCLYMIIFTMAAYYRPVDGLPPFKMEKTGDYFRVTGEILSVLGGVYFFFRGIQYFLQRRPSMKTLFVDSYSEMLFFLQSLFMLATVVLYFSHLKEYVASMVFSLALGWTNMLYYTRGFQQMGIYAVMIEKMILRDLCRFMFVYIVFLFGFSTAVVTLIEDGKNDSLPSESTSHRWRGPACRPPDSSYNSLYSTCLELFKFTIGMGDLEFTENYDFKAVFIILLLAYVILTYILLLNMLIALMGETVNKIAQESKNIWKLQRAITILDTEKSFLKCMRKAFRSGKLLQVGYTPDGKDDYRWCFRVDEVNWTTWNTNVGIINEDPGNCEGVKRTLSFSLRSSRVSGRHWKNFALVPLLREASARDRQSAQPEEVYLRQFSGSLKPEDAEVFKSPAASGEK
Procedure: Compounds of the present invention were tested for their ability to inhibit the binding of tritiated resiniferatoxin ([^3H] RTX) to human VR1 receptors in a [^3H] RTX binding assay, as previously described (Zhang, Sui-Po. Improved ligand binding assays for vanilloid receptors. PCT Int. Appl. (2002), WO 0233411 A1 20020425 AN 2002:315209; Grant, Elfrida R., Dubin, Adrienne E., Zhang, Sui-Po, Zivin, Robert A., Zhong, Zhong Simultaneous intracellular calcium and sodium flux imaging in human VR1-transfected human embryonic kidney cells: a method to resolve ionic dependence of VR1-mediated cell death. J. Pharmacol. Exp. ther., 2002, 300(1), 9-17.) HEK293 cells were transfected with human VR1 and washed with Hank's balanced Salt Solution, dissociated with cell dissociation buffer (Sigma), and then centrifuged at 1000× g for 5 min. Cell pellets were homogenized in cold 20 mM HEPES buffer (pH 7.4), containing 5.8 mM NaCl, 320 mM sucrose, 2 mM MgCl2, 0.75 CaCl2 and 5 mM KCl and centrifuged at 1000× g for 15 min. The resultant supernate was then centrifuged at 40000× g for 15 min. The pelleted membranes were stored in a freezer at −80 C.
Approximately 120 μg protein/ml from membranes were incubated with indicated concentrations of [^3H]RTX in 0.5 ml of the HEPES buffer (pH 7.4) containing 0.25 mg/mL fatty acid-free bovine serum albumin at 37 C for 60 min. After cooling the reaction mixture to 4 C, 0.1 mg (x-acid glycoprotein was added to each sample, which was incubated at 4 C for 15 min and then centrifuged at 18500× g for 15 min. The tip of the microcentrifuge tube containing the pellet was cut off. Bound radioactivity was quantified by scintillation counting. Non-specific binding was assessed in the presence of 200 nM unlabeled resiniferatoxin.
Data were calculated according to the equation: % inhibtion=(total binding−binding)*100/(total binding−non specific binding).
Ki values were calculated based on an average of duplicate measurements using a GraphPad Prism program.

human VR1 [2] = biological target: T1, human VR1; assay: Human VR1 functional assay (FLIPR intracellular Ca2+); format: cell-based; conditions: for IC50: antagonism of capsaicin-induced Ca2+ increase, read-out: h IC50; for h % I (10 μM) / h % I (5 μM) / inhibition at 1 µM / inhibition at 5 µM: inhibition of capsaicin response; for Emax at 12 µM: read-out: % Response Relative to EC80 of Capsaicin (12 μM); for inhibition at 1 µM: read-out: h % I (1 μM); for inhibition at 5 µM: read-out: h % I (5 μM)
Summary of the method: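 Read-out was Ca2+-dye fluorescence by FLIPR: compounds at varying concentrations were added to dye-loaded human VR1 HEK293 cells and monitored 5 min before capsaicin addition ([…], approx. EC80). Dose-response data, averaged over four wells, gave EC50 or IC50.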

inhibition at 1 µM (human VR1 [1]): 1%
IC50 (human VR1 [2]): 3.52 µM
Structure (SMILES): CC(C)(C)c1ccc(CCC(=O)Nc2ccccc2-c2ccncc2)cc1 [Cpd 103]

Ki (human VR1 [1]): 0.12 µM
inhibition at 1 µM (human VR1 [1]): 82%
Emax at 12 µM (human VR1 [2]; agonist response, 12 μM): 78%
Structure (SMILES): CC(C)(C)c1ccc(CCC(=O)Nc2ccc(-c3cccnc3)cc2)cc1 [Cpd 107]

h Binding % I (1 μM) (human VR1 [1]): 4%
h % I (5 μM) (human VR1 [2]): 63%
Structure (SMILES): Cn1ccnc1-c1ccc(NC(=O)CCc2ccc(C(C)(C)C)cc2)cc1 [Cpd 189]

Ki (human VR1 [1]): 0.329 µM
inhibition at 5 µM (human VR1 [2]): 100%
Structure (SMILES): O=C(CCc1ccc(C(F)(F)F)cc1)Nc1cnc(-c2ccncc2)c(C(F)(F)F)c1 [Cpd 255]

Ki (human VR1 [1]): 0.0443 µM
IC50 (human VR1 [2]): 0.952 µM
inhibition at 1 µM (human VR1 [2]): 52%
Structure (SMILES): O=C(CCc1ccc(C(F)(F)F)cc1)Nc1ccc(-n2cnc3ccccc32)c(C(F)(F)F)c1 [Cpd 253]

Ki (human VR1 [1]): 0.0798 µM
IC50 (human VR1 [2]): 0.396 µM
inhibition at 1 µM (human VR1 [2]): 92%
Structure (SMILES): Cc1cc(NC(=O)/C=C/c2ccc(N(C)C3CCCCC3)cc2)cnc1-n1cnc(Cl)c1Cl [Cpd 241, trans-3-[4-(Cyclohexyl-methyl-amino)-phenyl]-N-[6-(4,5-dichloro-imidazol-1-yl)-5-methyl-pyridin-3-yl]-acrylamide]

Ki (human VR1 [1]): 0.18 µM
inhibition at 1 µM (human VR1 [1]): 73%
Emax at 12 µM (human VR1 [2]; agonist response, 12 μM): 62%
Structure (SMILES): CC(C)(C)c1ccc(CCC(=O)Nc2cccc(-c3ccncc3)c2)cc1 [Cpd 104]

Ki (human VR1 [1]): 0.0908 µM
IC50 (human VR1 [2]): 0.168 µM
inhibition at 1 µM (human VR1 [2]): 100%
Structure (SMILES): O=C(CCc1ccc(C(F)(F)F)cc1)Nc1ccc(-n2cnc(Cl)c2)c(C(F)(F)F)c1 [Cpd 227, N-[4-(4-Chloro-imidazol-1-yl)-3-trifluoromethyl-phenyl]-3-(4-trifluoromethyl-phenyl)-propionamide]

The next lines start with the compound.

Structure (SMILES): O=C(CCc1ccc(C(F)(F)F)cc1)Nc1ccc(-c2cccc(CO)c2)cc1 [Cpd 79]
h Binding % I (1 μM) (human VR1 [1]): 19%
% Response Relative to EC80 of Capsaicin (12 μM) (human VR1 [2]; agonist response, 12 μM): 74%

Structure (SMILES): CC(C)(C)c1ccc(CCC(=O)Nc2cccc(-c3cccc(O)c3)c2)cc1 [Cpd 5]
h Binding % I (1 μM) (human VR1 [1]): 4%
h % I (10 μM) (human VR1 [2]): 35%

Structure (SMILES): CC(C)(C)c1ccc(CCC(=O)Nc2ccc(-c3cccc(O)c3)c3ccccc23)cc1 [Cpd 82]
h Binding % I (1 μM) (human VR1 [1]): 28%
h % I (5 μM) (human VR1 [2]): 39%

Structure (SMILES): CC(C)(C)OC(=O)NCc1cccc(-c2ccc(NC(=O)CCc3ccc(C(C)(C)C)cc3)cc2)c1 [Cpd 42]
h Binding % I (1 μM) (human VR1 [1]): 1.1%
h % I (10 μM) (human VR1 [2]): 9%

Structure (SMILES): CC(C)(C)c1ccc(CCC(=O)Nc2ccc(-c3cccc(O)c3)cc2)s1 [Cpd 65, 3-(5-tert-butyl-thiophen-2-yl)-N-(3′-hydroxy-biphenyl-4-yl)-propionamide]
Ki (human VR1 [1]): 0.168 µM
inhibition at 1 µM (human VR1 [1]): 77%
Emax at 12 µM (human VR1 [2]; agonist response, 12 μM): 87%

Structure (SMILES): O=C(CCc1ccc(C(F)(F)F)cc1)Nc1ccc(-c2ccc(O)cc2)cc1 [Cpd 78]
Ki (human VR1 [1]): 0.289 µM
inhibition at 1 µM (human VR1 [1]): 56%
Emax at 12 µM (human VR1 [2]; agonist response, 12 μM): 70%

Structure (SMILES): CN(C)C(=O)c1cccc(-c2cccc(NC(=O)CCc3ccc(C(C)(C)C)cc3)c2)c1 [Cpd 38]
h Binding % I (1 μM) (human VR1 [1]): 1%
h % I (10 μM) (human VR1 [2]): 17%

Structure (SMILES): Cc1cc(NC(=O)CCc2ccc(C(C)(C)C)cc2)ccc1-c1ccc(O)cc1 [Cpd 98]
Ki (human VR1 [1]): 0.058 µM
IC50 (human VR1 [2]): 0.418 µM
inhibition at 1 µM (human VR1 [2]): 97%
inhibition at 5 µM (human VR1 [2]): 102%

Structure (SMILES): CC(C)(C)c1ccc(CCC(=O)Nc2cccc(-c3ccc(O)cc3)c2)cc1 [Cpd 2]
h Binding % I (1 μM) (human VR1 [1]): 11%
h % I (10 μM) (human VR1 [2]): 41%

Structure (SMILES): CC(C)(C)c1ccc(CCC(=O)Nc2cccc(-c3cccc(C(N)=O)c3)c2)cc1 [Cpd 37]
h Binding % I (1 μM) (human VR1 [1]): 21%
h % I (10 μM) (human VR1 [2]): 16%

Structure (SMILES): CC(C)(C)c1ccc(CCC(=O)Nc2ccc(-c3cccc(O)c3)cc2)cc1 [Cpd 6, 3-(4-tert-butyl-phenyl)-N-(3′-hydroxy-biphenyl-4-yl)-propionamide]
Ki (human VR1 [1]): 0.086 µM
inhibition at 1 µM (human VR1 [1]): 67%
Emax at 12 µM (human VR1 [2]; agonist response, 12 μM): 24%

Structure (SMILES): CC(C)(C)c1ccc(CCC(=O)Nc2cccc(-c3ccc(CO)cc3)c2)cc1 [Cpd 22]
h Binding % I (1 μM) (human VR1 [1]): 1%
h % I (10 μM) (human VR1 [2]): 1%

Structure (SMILES): Cc1cc(-c2cccc(O)c2)ccc1NC(=O)CCc1ccc(C(C)(C)C)cc1 [Cpd 58]
h Binding % I (1 μM) (human VR1 [1]): 43%
% Response Relative to EC80 of Capsaicin (6 μM) (human VR1 [2]; agonist response, 6 μM): 19%
